Biological target: human adenosine A2a receptor (Homo sapiens (Human), UniProt P29274)
Test: A2a receptor binding affinity, [3H]-NECA radioligand binding test
Conditions: [3H]-NECA 37 nM; membrane from HEK-293 cells transfected with human adenosine A2a receptor
Procedure: The binding affinity of the compounds according to Examples of the present invention to the human adenosine A2a receptor was evaluated by entrusting SB drug discovery in the UK.
A radioligand binding test was conducted by using [3H]-NECA (5′-N-[adenine-2,8-3H]-ethylcarboxamidoadenosine) and an adenosine A2a membrane. As the adenosine A2a membrane, a cell membrane prepared from HEK-293 cells transfected with human adenosine A2a receptor was used. The membrane used for the test was prepared by incubating with a radioligand until equilibrium was reached. In order to separate the radioligand-bound membrane, the unbound radioligand was separated by using Packard filtermate Harverster and glass filter plates.
10 μL of test compound dissolved in binding buffer (50 mM Tris, 10 mM MgCl2, 1 mM EDTA pH 7.4) and 20 μL of [3H]-NECA (final concentration of 37 nM) or reference inhibitor was mixed with 20 μL of A2a membrane in an unbound 96-well plate and incubated at room temperature for one hour. Prior to filtration, a 96-well harvest filter plate was coated with 0.33% polyethylenimine for 30 minutes and then washed with assay buffer. The binding reaction was transferred to the filter plate and washed three times with wash buffer. The dish was then dried, scintillant was added, and radioactivity was counted in a scintillation counter (Topcount NXT, Packard).
The binding affinity IC50 (μM) for the human adenosine A2a receptor obtained according to the above experimental method is shown in the table below.

Chain of human adenosine A2a receptor (P29274 whole entry): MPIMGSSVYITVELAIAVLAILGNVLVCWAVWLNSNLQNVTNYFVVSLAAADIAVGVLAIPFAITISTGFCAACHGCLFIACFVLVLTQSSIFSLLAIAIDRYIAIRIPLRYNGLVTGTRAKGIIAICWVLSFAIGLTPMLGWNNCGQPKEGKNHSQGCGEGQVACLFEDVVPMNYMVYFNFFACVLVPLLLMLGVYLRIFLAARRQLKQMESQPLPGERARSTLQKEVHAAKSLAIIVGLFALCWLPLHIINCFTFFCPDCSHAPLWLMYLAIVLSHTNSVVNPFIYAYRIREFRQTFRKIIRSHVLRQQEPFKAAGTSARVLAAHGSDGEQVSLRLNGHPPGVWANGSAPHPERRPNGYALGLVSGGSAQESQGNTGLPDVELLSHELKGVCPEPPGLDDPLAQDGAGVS

SMILES	IC50 [nM]
C[C@H](Nc1nc(N)n2nc(-c3ccco3)nc2n1)C(=O)N1CCN(CC(F)F)CC1 [Example 316, (S)-2-((7-amino-2-(furan-2-yl)-[1,2,4]triazolo[1,5-a][1,3,5]triazin-5-yl)amino)-1-(4-(2,2-difluoroethyl)piperazin-1-yl)propan-1-one]	26
COC1CCN(C(=O)[C@@H]2CCCN2c2nc(N)n3nc(-c4ccco4)nc3n2)CC1 [Example 146, (S)-(1-(7-amino-2-(furan-2-yl)-[1,2,4]triazolo[1,5-a][1,3,5]triazin-5-yl)pyrrolidin-2-yl)(4-methoxypiperidin-1-yl)methanone]	18
CCC(O)(CC)CN1CCN(C(=O)[C@@H]2CCCN2c2nc(N)n3nc(-c4ccco4)nc3n2)CC1 [Example 42, (S)-(1-(7-amino-2-(furan-2-yl)-[1,2,4]triazolo[1,5-a][1,3,5]triazin-5-yl)pyrrolidin-2-yl)(4-(2-ethyl-2-hydroxybutyl)piperazin-1-yl)methanone]	11
Nc1nc(N2CCC[C@@H]2C(=O)N2CCN(Cc3ccccc3)CC2)nc2nc(-c3ccco3)nn12 [Example 95, (R)-(1-(7-amino-2-(furan-2-yl)-[1,2,4]triazolo[1,5-a][1,3,5]triazin-5-yl)pyrrolidin-2-yl)(4-benzylpiperazin-1-yl)methanone]	4990
Nc1nc(N2CCC[C@H]2C(=O)N2CC3(CCN(CC(F)(F)F)CC3)C2)nc2nc(-c3ccco3)nn12 [Example 363, (S)-(1-(7-amino-2-(furan-2-yl)-[1,2,4]triazolo[1,5-a][1,3,5]triazin-5-yl)pyrrolidin-2-yl)(7-(2,2,2-trifluoroethyl)-2,7-diazaspiro[3-5]nonan-2-yl)methanone]	12
COC[C@H](Nc1nc(N)n2nc(-c3ccco3)nc2n1)C(=O)N1CCN(c2ncccn2)CC1 [Example 304, (S)-2-((7-amino-2-(furan-2-yl)-[1,2,4]triazolo[1,5-a][1,3,5]triazin-5-yl)amino)-3-methoxy-1-(4-(pyrimidin-2-yl)piperazin-1-yl)propan-1-one]	11

These reach a lower IC50. Values come first.

IC50 [nM]	SMILES
8	Nc1nc(N2CCC[C@H]2C(=O)N2CCN(C3CCC(F)(F)CC3)CC2)nc2nc(-c3ccco3)nn12 [Example 56, (S)-(1-(7-amino-2-(furan-2-yl)-[1,2,4]triazolo[1,5-a][1,3,5]triazin-5-yl)pyrrolidin-2-yl)(4-(4,4-difluorocyclohexyl)piperazin-1-yl)methanone]
8	CCCCN1CCN(C(=O)[C@@H]2CCCN2c2nc(N)n3nc(-c4ccco4)nc3n2)CC1 [Example 47, (S)-(1-(7-amino-2-(furan-2-yl)-[1,2,4]triazolo[1,5-a][1,3,5]triazin-5-yl)pyrrolidin-2-yl)(4-butylpiperazin-1-yl) methanone]
7	CC(c1ccccc1)N1CCN(C(=O)[C@@H]2CCCN2c2nc(N)n3nc(-c4ccco4)nc3n2)CC1 (stereo partly drawn) [Example 66]
1.92	Nc1nc(N[C@@H](CO)C(=O)N2CCN(c3ccc(F)cc3F)CC2)nc2nc(-c3ccco3)nn12 [Example 8, (S)-2-((7-amino-2-(furan-2-yl)-[1,2,4]triazolo[1,5-a][1,3,5]triazin-5-yl)amino)-1-(4-(2,4-difluorophenyl)piperazin-1-yl)-3-hydroxypropan-1-one]
1	Nc1nc(N2CCC[C@H]2C(=O)N2CCC(C3CCN(CC(F)(F)F)CC3)CC2)nc2nc(-c3ccco3)nn12 [Example 206, (S)-(1-(7-amino-2-(furan-2-yl)-[1,2,4]triazolo[1,5-a][1,3,5]triazin-5-yl)pyrrolidin-2-yl)(1′-(2,2,2-trifluoroethyl)-[4,4′-bipiperidin]-1-yl)methanone]
0.125	Nc1nc(N[C@@H](Cc2ccccc2)C(=O)N2CCN(Cc3ccc(F)cc3)CC2)nc2nc(-c3ccco3)nn12 [Example 18, (S)-2-((7-amino-2-(furan-2-yl)-[1,2,4]triazolo[1,5-a][1,3,5]triazin-5-yl)amino)-1-(4-(4-fluorobenzyl)piperazin-1-yl)-3-phenylpropan-1-one]
